Test results as given in ChEMBL document CHEMBL1145863, “Design and synthesis of dihydrofolate reductase inhibitors encompassing a bridging ester group. Evaluation in a mouse colitis model” (J Med Chem, 2003).

Target: T1, Dihydrofolate reductase (Rattus norvegicus, UniProt Q920D2)
T1 sequence (Q920D2 whole entry): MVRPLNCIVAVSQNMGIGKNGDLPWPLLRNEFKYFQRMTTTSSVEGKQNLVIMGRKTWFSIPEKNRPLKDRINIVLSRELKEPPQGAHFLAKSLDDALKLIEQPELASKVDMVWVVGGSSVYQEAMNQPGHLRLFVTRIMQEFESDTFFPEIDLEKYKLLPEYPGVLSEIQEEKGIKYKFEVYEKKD
Assay: Inhibition of rat liver Dihydrofolate reductase (rlDHFR)

Nc1nc(N)c2cc(COC(=O)c3ccc(C(=O)N[C@H](CCC(=O)O)C(=O)O)cc3)ccc2n1
IC50: 150 nM

Nc1nc(N)c2cc(COC(=O)c3ccc(C(=O)N[C@@H](CCCC(=O)O)C(=O)O)cc3)ccc2n1
IC50: 160 nM
